Measured values as given in patent US20260151518A1, “LEUKOCYTE-SPECIFIC CELL PENETRATING MOLECULES” (Amytrx Therapeutics, Inc., priority 2021, published 2026).

Legend:
[1] = Blood partition calculation after single administration of [3H]-AMTX-100; assay type: in vivo; design: Partition coefficient / Non-plasma compartment: unit not given here; conditions: single intravenous (title), 5 mg/kg, rat
Description: Eight male Sprague Dawley rats each received a single IV administration of [^3H]-AMTX-100 and a terminal sample of whole blood (each approximately 5-10 mL) was collected via cardiac puncture under isofluorane anesthesia from a single rat at the following time points: […]
(§1) Whole blood was collected into tubes containing K2-EDTA as anticoagulant. Following collection, an aliquot of whole blood (approximately 4 mL) was retained for analysis of whole blood and white blood cell (WBC) concentrations. The remaining whole blood samples were processed to plasma. Plasma samples were not depleted of white blood cells.

[2] = Concentrations of radioactivity in whole blood, plasma, WBC depleted blood and recovered white blood cells after single subcutaneous administration of [3H]-AMTX-100; assay type: in vivo, rat; design: key to Concentration of radioactivity in Recovered White Blood Cells: BLQ: Below limit of accurate quantification; conditions: 5 mg/kg; for Concentration of radioactivity in WBC depleted blood / Concentration of radioactivity in Whole Blood / Concentration of radioactivity in Plasma / Concentration of radioactivity in Recovered White Blood Cells: rat; for Concentration of radioactivity in Plasma: plasma not depleted of white blood cells; for Concentration of radioactivity in Recovered White Blood Cells: reverse wash of filters; for Cmax, total radioactivity: male non-pigmented rats
Description: [^3H]-NSP labelling. For the main phase of the study, the test protein was prepared, radiolabeled with N-succinimidyl-[2,3-3H]-propionate ([^3H]-NSP) and purified as described below.
Three aliquots of 1.6 mL [^3H]-NSP solution were dispensed into appropriate vials. The solvent was evaporated under a gentle stream of nitrogen gas at ambient temperature. Once enough of the solvent had been evaporated, the three aliquots were combined into one vial and the remaining solvent evaporated until dryness. The residue in the vial was re-suspended in 0.6 mL of 1 mg/mL AMTX-100 by gently vortex mixing to ensure complete mixing of the protein with the labelling reagent. The solutions were allowed to stand at ambient temperature for approximately 1 hour.
The [^3H]-NSP-protein solutions were then purified by reverse phase chromatography techniques and the resulting solution was frozen and lyophilized using a freeze drier. The resulting material was dissolved in 2 mL ethanol:water (50:50) and stored at approximately −20° C. prior to formulation for dose preparation.
Formulation. The required quantities of each radiolabeled test item were combined with the corresponding non-labelled test item as appropriate to achieve a radioactive concentration sufficient to meet the aims of the study. Dose solutions were prepared in PBS buffer pH 7.4, with the intention of administering a total dose volume of […], (2.5 ml/kg, […]).
as §1
AMTX-100 was radiolabeled with 3H at lysine residues and injected into Sprague-Dawley rats in a single dose by seven different routes (intravenous, subcutaneous, topical [skin], intratracheal, intraduodenal, esophageal, and oral). The rats were evaluated at various time points, up to 120 hours, by: a) blood samples were taken for pharmacokinetics (PK) by cardiac puncture; b) rats were frozen and sectioned for QWBA and/or micro-auto-radiography and histology; and c) frozen sections were made and freeze dried and exposed to phosphor-storage imaging plates and tissue radioactivity in images was quantified as tissue: blood ratios.
For all PK studies, the following definitions were used: WB=whole blood; Plasma=whole blood depleted of red blood cells; WBCD=whole blood depleted of white blood cells in which the whole blood is passed over a Pall Acrodisc filter (about 60% efficient); WBCs=the cells which bind to, and are washed off, the Pall Acrodisc filter.

CSCC[C@@H]1NC(=O)[C@H](CC(C)C)NC(=O)[C@H](CCCCN)NC(=O)[C@H](CCC(N)=O)CC(=O)[C@H](CCCNC(=N)N)NC(=O)[C@H](CCCCN)NC(=O)[C@H](CCCNC(=N)N)NC(=O)[C@H](CCC(N)=O)NC(=O)[C@H](C(C)C)NC(=O)[C@@H](NC(=O)[C@@H]2CCCN2C(=O)[C@H](C)NC(=O)[C@H](CC(C)C)NC(=O)[C@H](CC(C)C)NC(=O)[C@H](C)NC(=O)[C@H](CC(C)C)NC(=O)[C@H](CC(C)C)NC(=O)[C@@H](NC(=O)[C@H](C)NC(=O)[C@@H]2CCCN2C(=O)[C@H](CC(C)C)NC(=O)[C@H](CC(C)C)NC(=O)[C@H](C)NC(=O)[C@@H](NC(=O)[C@H](C)NC(=O)[C@H](C)N)C(C)C)C(C)C)CSSC[C@@H](C(=O)O)NC(=O)[C@@H]2CCCN2C1=O [[^3H]-AMTX-100]
Blood ([1]; 1 h): 0.081 µg/mL | Non-plasma compartment ([1]; 1 h): 11.7 | Partition coefficient ([1]; 1 h): 88.3 | Plasma ([1]; 1 h): 0.110 µg/mL | Blood ([1]; 2 h): 0.059^1 μg/mL | Non-plasma compartment ([1]; 2 h): 20.3 | Partition coefficient ([1]; 2 h): 79.7 | Plasma ([1]; 2 h): 0.084 µg/mL | Blood ([1]; 4 h): 0.054 µg/mL | Non-plasma compartment ([1]; 4 h): 24.4 | Partition coefficient ([1]; 4 h): 75.6 | Plasma ([1]; 4 h): 0.068 µg/mL | Blood ([1]; 8 h): 0.070 µg/mL | Non-plasma compartment ([1]; 8 h): 22.9 | Partition coefficient ([1]; 8 h): 77.1 | Plasma ([1]; 8 h): 0.090 µg/mL | Blood ([1]; 24 h): 0.120 µg/mL | Non-plasma compartment ([1]; 24 h): 27.0 | Partition coefficient ([1]; 24 h): 73.0 | Plasma ([1]; 24 h): 0.146 µg/mL | Blood ([1]; 48 h): 0.186 µg/mL | Non-plasma compartment ([1]; 48 h): 28.7 | Partition coefficient ([1]; 48 h): 71.3 | Plasma ([1]; 48 h): 0.221 µg/mL | Concentration of radioactivity in WBC depleted blood ([2]; 1 h): 0.015 μg equivalents/mL | Concentration of radioactivity in Whole Blood ([2]; 1 h): 0.081 μg equivalents/mL | Concentration of radioactivity in Plasma ([2]; 1 h): 0.110 μg equivalents/mL | Concentration of radioactivity in Recovered White Blood Cells ([2]; 1 h): BLQ | Concentration of radioactivity in WBC depleted blood ([2]; 2 h): 0.011 μg equivalents/mL | Concentration of radioactivity in Whole Blood ([2]; 2 h): 0.059^3 μg equivalents/mL | Concentration of radioactivity in Plasma ([2]; 2 h): 0.084 μg equivalents/mL | Concentration of radioactivity in Recovered White Blood Cells ([2]; 2 h): BLQ | Concentration of radioactivity in WBC depleted blood ([2]; 4 h): 0.011 μg equivalents/mL | Concentration of radioactivity in Whole Blood ([2]; 4 h): 0.054 μg equivalents/mL | Concentration of radioactivity in Plasma ([2]; 4 h): 0.068 μg equivalents/mL | Concentration of radioactivity in Recovered White Blood Cells ([2]; 4 h): BLQ | Concentration of radioactivity in WBC depleted blood ([2]; 8 h): 0.011 μg equivalents/mL | Concentration of radioactivity in Whole Blood ([2]; 8 h): 0.070 μg equivalents/mL | Concentration of radioactivity in Plasma ([2]; 8 h): 0.090 μg equivalents/mL | Concentration of radioactivity in Recovered White Blood Cells ([2]; 8 h): BLQ | Concentration of radioactivity in WBC depleted blood ([2]; 24 h): 0.021 μg equivalents/mL | Concentration of radioactivity in Whole Blood ([2]; 24 h): 0.120 μg equivalents/mL | Concentration of radioactivity in Plasma ([2]; 24 h): 0.146 μg equivalents/mL | Concentration of radioactivity in Recovered White Blood Cells ([2]; 24 h): BLQ | Concentration of radioactivity in WBC depleted blood ([2]; 48 h): 0.033 μg equivalents/mL | Concentration of radioactivity in Whole Blood ([2]; 48 h): 0.186 μg equivalents/mL | Concentration of radioactivity in Plasma ([2]; 48 h): 0.221 μg equivalents/mL | Concentration of radioactivity in Recovered White Blood Cells ([2]; 48 h): BLQ | Cmax, total radioactivity ([2]; Plasma): 221 ng/mL | Cmax, total radioactivity ([2]; WBCD blood): 33 ng/mL | Cmax, total radioactivity ([2]; Whole blood): 186 ng/mL
